Results: patent US11253460B2, “Cosmetic compositions” (Mary Kay Inc., priority 2013, dated 2022)

Experiments:
Assay type in all cases: cell-based
B16-F1 melanocytes = test: B16 Pigmentation Assay
Excerpt: B16 Pigmentation Assay: Melanogenesis is the process by which melanocytes produce melanin, a naturally produced pigment that imparts color to skin, hair, and eyes. Inhibiting melanogenesis is beneficial to prevent skin darkening and lighten dark spots associated with aging. This bioassay utilizes B16-F1 melanocytes (ATCC), an immortalized mouse melanoma cell line, to analyze the effect of compounds on melanogenesis. The endpoint of this assay is a spectrophotometric measurement of melanin production and cellular viability. B16-F1 melanocytes, can be cultivated in standard DMEM growth medium with 10% fetal bovine serum (Mediatech) at 37° C. in 10% CO2 and then treated with any one of the active ingredients, combination of ingredients, or compositions having said combinations disclosed in the specification for 6 days. Following incubation, melanin secretion was measured by absorbance at 405 nm and cellular viability was quantified.

[1] = tested on: IL-1α production by Human Epidermal Keratinocytes; test: IL-1α Assay (ELISA, cell culture supernates)
Procedure: IL-1α Assay: A quantitative sandwich enzyme immunoassay technique(ELISA) was used to measure IL-1α in cell culture supernates. A monoclonal antibody that is specific for IL-1α was pre-coated onto a microplate. Standards and treatment samples are then pipetted into the wells and any IL-1α present is bound by the immobilized antibody. After washing away any unbound substances, an enzyme-linked polyclonal antibody specific for IL-1α is added to the wells. Following a wash to remove any unbound antibody-enzyme reagent, a substrate solution is added to the wells and color develops in proportion to the amount of IL-1α bound which was secreted in response to the treatment.

[2] = tested on: TNF-α production by human epidermal keratinocytes; test: Tumor Necrosis Factor Alpha (TNF-α) Assay (ELISA)
Excerpt: Tumor Necrosis Factor Alpha (TNF-α) Assay: The prototype ligand of the TNF superfamily, TNF-α, is a pleiotropic cytokine that plays a central role in inflammation. Increase in its expression is associated with an up regulation in pro-inflammatory activity. This bioassay can be used to analyze the effect of any one of the active ingredients, combination of ingredients, or compositions having said combinations disclosed in the specification on the production of TNF-α by human epidermal keratinocytes. The endpoint of this assay can be a spectrophotometric measurement that reflects the presence of TNF-α and cellular viability. The assay employs the quantitative sandwich enzyme immunoassay technique whereby a monoclonal antibody specific for TNF-α has been pre-coated onto a microplate. […] Following a wash to remove any unbound antibody-enzyme reagent, a substrate solution can be added to the wells and color develops in proportion to the amount of TNF-α bound in the initial step using a microplate reader for detection at 450 nm. The color development can be stopped and the intensity of the color can be measured. […] Following incubation, cell culture medium can be collected and the amount of TNF-α secretion quantified using a sandwich enzyme linked immuno-sorbant assay (ELISA) from R&D Systems (#DTA00C).

Molecule: NC(=O)c1cccnc1 [Niacinamide]
- Inhibits Melanogenesis with Mouse Melanocytes (B16-F1 Assay) (B16-F1 melanocytes): (−28%)

Molecule: Acetyl dipeptide-1 Cetyl Ester
- Inhibit IL-1α Production by Human Epidermal Keratinocytes (% inhibition) [1]: 97%
- Inhibit TNF-α Production by Human Epidermal Keratinocytes [2]: 88%
